In this assay the target is T1, Human TRPV3 (Homo sapiens, UniProt Q8NET8).
T1 construct: expressed in transfected cells; host or cells: CHO cells (G-418 selected)
T1 sequence (Q8NET8 1-790): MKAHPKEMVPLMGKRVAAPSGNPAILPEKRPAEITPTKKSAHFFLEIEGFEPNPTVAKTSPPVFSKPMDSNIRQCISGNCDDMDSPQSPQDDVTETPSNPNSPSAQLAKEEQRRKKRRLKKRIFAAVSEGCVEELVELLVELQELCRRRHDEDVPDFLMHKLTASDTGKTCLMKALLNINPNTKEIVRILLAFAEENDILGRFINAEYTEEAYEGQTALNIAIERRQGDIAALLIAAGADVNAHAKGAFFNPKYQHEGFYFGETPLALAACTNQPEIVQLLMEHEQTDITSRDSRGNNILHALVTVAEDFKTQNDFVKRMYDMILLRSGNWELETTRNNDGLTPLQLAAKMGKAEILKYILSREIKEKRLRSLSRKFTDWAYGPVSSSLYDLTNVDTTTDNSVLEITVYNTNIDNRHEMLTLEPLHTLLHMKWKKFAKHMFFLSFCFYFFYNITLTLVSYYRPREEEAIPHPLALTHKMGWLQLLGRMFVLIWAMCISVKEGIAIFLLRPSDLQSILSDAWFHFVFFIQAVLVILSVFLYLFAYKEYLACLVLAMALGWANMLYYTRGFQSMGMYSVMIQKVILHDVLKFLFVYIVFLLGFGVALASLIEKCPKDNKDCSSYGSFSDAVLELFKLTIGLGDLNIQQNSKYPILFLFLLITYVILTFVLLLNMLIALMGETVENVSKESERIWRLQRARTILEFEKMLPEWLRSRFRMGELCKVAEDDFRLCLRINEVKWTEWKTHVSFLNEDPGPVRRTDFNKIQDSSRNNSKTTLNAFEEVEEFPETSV
Put plainly: 45Calcium uptake assay: inhibition of 2-APB induced cellular uptake of radioactive calcium. In kind it is cell-based. Particulars: human TRPV3 expressing CHO cells, 2-APB 500 μM; for inhibition at 1 µM: 1.0 μM compound, read-out: Percentage inhibition at 1.0 μM; for inhibition at 10 µM: 10.0 μM compound, read-out: Percentage inhibition at 10.0 μM. The source says: The illustrative examples of the present invention are screened for TRPV3 activity according to a modified procedure described in Toth, A. et al. Life Sciences (2003), 73, 487-498. The screening of the compounds can be carried out by other methods and procedures known to a person skilled in the art. Such screening methods may be found in Hu, H-Z., et al. J. Biol. Chem. (2004), 279, 35741-35748; Smith, G. D et al. Nature (2002), 418, 186-190 and Peier, A. M., et al. Science (2002), 296, 2046-2049.
Screening for TRPV3 Antagonist Using the ^45Calcium Uptake Assay:
The inhibition of TRPV3 receptor activation was followed as inhibition of 2-APB induced cellular uptake of radioactive calcium. Test compounds were dissolved in DMSO to prepare 20 mM stock and then diluted using plain medium with 0.1% BSA and 1.8 mM CaCl2 to get desired concentration. Final concentration of DMSO in the reaction was 0.5% (v/v). Human TRPV3 expressing CHO cells were grown in F-12 DMEM medium with 10% FBS, 1% penicillin-streptomycin solution, 400 μg/ml of G-418. Cells were seeded 24 h prior to the assay in 96 well plates so as to get ˜50,000 cells per well on the day of experiment. Cells were treated with test compounds for 10 minutes followed by addition of 2-APB at a final concentration of 500 μM and 5 μCi/ml ^45Ca^+2 for 4 minutes. Cells were washed and lysed using buffer containing 1% Triton X-100, 0.1% deoxycholate and 0.1% SDS. Radioactivity in the lysate was measured in Packardt Top count after addition of liquid scintillant.
Concentration response curves were plotted as a % of maximal response obtained in the absence of test antagonist. IC50 value was calculated from concentration response curve by nonlinear regression analysis using GraphPad PRISM software.
Percentage inhibition at concentrations of 1.0 μM and 10.0 μM are given in the table along with IC50 (nM) values for selected examples.

The record followed here is patent US8487121B2, “Chromane derivatives as TRPV3 modulators” (Glenmark Pharmaceuticals S.A., priority 2007, dated 2013).

As to `COc1cccc(CCC(=O)NC2CC3(CCC3)Oc3cc(C)c(Cl)cc32)c1OC1CCCC1` (stereo not shown) [Example 49, N-(6-Chloro-7-methyl-3,4-dihydrospiro[chromene-2,1′-cyclobutan]-4-yl)-3-(2-cyclo-pentyloxy-3-methoxy)phenylpropanamide], the inhibition (commonly the relative decrease from the control value, in per cent) at 1 µM came to 35.4% and the inhibition at 10 µM was 70.1%.

As to `COc1cccc(CCC(=O)NC2CC3(CCC3)Oc3cccc(OCc4ccccc4)c32)c1OC1CCCC1` (stereo not shown) [Example 50, N-(5-Benzyloxy-3,4-dihydrospiro[chromene-2,1′-cyclobutan]-4-yl)-3-(2-cyclopentyloxy-3-methoxy)phenylpropanamide], the inhibition at 1 µM was 52.8%; the inhibition at 10 µM is 77.6%; the IC50 – broadly, the concentration that gives 50% inhibition – lay in the range of 0.5 to 1 µM.

On to `COc1cccc(CCC(=O)NC2CC3(CCC3)Oc3cccc(O)c32)c1OC1CCCC1` (stereo not shown) [Example 51, N-(5-Hydroxy-3,4-dihydrospiro[chromene-2,1′-cyclobutan]-4-yl)-3-(2-cyclopentyloxy-3-methoxy)phenylpropanamide], for which the inhibition at 1 µM worked out at 37.1%, the inhibition at 10 µM came to 86.7% and the IC50 lay within 1 to 2 µM.

As for `COc1cccc(CCC(=O)NC2CC3(CCC3)Oc3cccc(OC)c32)c1OC1CCCC1` (stereo not shown) [Example 52, N-(3,4-Dihydrospiro[chromene-2,1′-cyclobutan]-5-methoxy-4-yl)-3-(2-cyclopentyloxy-3-methoxy)phenylpropanamide], the inhibition at 1 µM was found to be 39.6% and the inhibition at 10 µM stood at 92.5%.

Take `Cc1cccc(CCC(=O)N[C@@H]2CC3(CCC3)Oc3ccc(Cl)cc32)c1OC1CCCC1` [Example 53, (4R)-6-Chloro-N-(3,4-dihydrospiro[chromene-2,1′-cyclobutan]-4-yl)-3-(2-cyclopentyloxy-3-methyl)phenylpropanamide]: the inhibition at 1 µM was found to be 61.9%, the inhibition at 10 µM was found to be 91.4% and the half-maximal inhibitory concentration (IC50) was 0.5 to 1 µM.

In the case of `Cc1cccc(CCC(=O)N[C@H]2CC3(CCC3)Oc3ccc(Cl)cc32)c1OC1CCCC1` [Example 54, (4S)-6-Chloro-N-(3,4-dihydrospiro[chromene-2,1′-cyclobutan]-4-yl)-3-(2-cyclopentyloxy-3-methyl)phenylpropanamide], the inhibition at 1 µM was 36.2% and the inhibition at 10 µM worked out at 63.6%.

For `COc1cccc(CCC(=O)NC2CC3(CCC3)Oc3ccc(Cl)cc32)c1OCc1ccccc1` (stereo not shown) [Example 56, N-(6-Chloro-3,4-dihydrospiro[chromene-2,1′-cyclobutan]-4-yl)-3-(2-benzyloxy-3-methoxy)phenylpropanamide], the inhibition at 1 µM turned out to be 57.5% and the inhibition at 10 µM is 87.5%.

For the compound `CC(C)Oc1c(CCC(=O)NC2CC3(CCC3)Oc3ccc(Cl)cc32)cccc1NS(C)(=O)=O` (stereo not shown) [Example 57, N-(6-Chloro-3,4-dihydrospiro[chromene-2,1′-cyclobutan]-4-yl)-3-{2-isopropoxy-3-[(methylsulfonyl)amino]phenyl}propanamide], the inhibition at 1 µM is 30.3% and the inhibition at 10 µM is 84.3%.

With `CC(C)Oc1c(CCC(=O)NC2CC3(CCC3)Oc3c(Cl)cccc32)cccc1NS(C)(=O)=O` (stereo not shown) [Example 58, N-(8-Chloro-3,4-dihydrospiro[chromene-2,1′-cyclobutan]-4-yl)-3-{2-isopropoxy-3-[(methylsulfonyl)amino]phenyl}propanamide], the inhibition at 1 µM amounted to 61.7% and the inhibition at 10 µM was determined as 98.7%.

In the case of `COc1cccc(CCC(=O)NC2CC3(CCC3)Oc3c(Cl)cc(Cl)cc32)c1OC1CCCC1` (stereo not shown) [Example 59, N-(6,8-Dichloro-3,4-dihydrospiro[chromene-2,1′-cyclobutan]-4-yl)-3-(2-cyclopentyloxy-3-methoxy)phenylpropanamide], the inhibition at 1 µM came out at 89.4%, the inhibition at 10 µM came out at 96.3% and the IC50 is < 0.5 µM.

Turning to `COc1cccc(CCC(=O)NC2CC3(CCC3)Oc3c(Cl)cc(Cl)cc32)c1OCCN(C)C` (stereo not shown) [Example 60, N-(6,8-dichloro-3,4-dihydrospiro[chromene-2,1′-cyclobutan]-4-yl)-3-{[2-(dimethylamino)ethoxy-3-methoxy]phenyl}propanamide], the inhibition at 1 µM is 1.2% and the inhibition at 10 µM is 0%.

With `CCCOc1c(CCC(=O)NC2CC3(CCC3)Oc3c(Cl)cc(Cl)cc32)cccc1NS(C)(=O)=O` (stereo not shown) [Example 61, N-(6,8-dichloro-3,4-dihydrospiro[chromene-2,1′-cyclobutan]-4-yl)-3-{2-propoxy-3-[(methylsulfonyl)amino]phenyl}propanamide], the inhibition at 1 µM turned out to be 45.1% and the inhibition at 10 µM came out at 93.8%.

As to `CC(C)Oc1ccc(NS(C)(=O)=O)cc1CCC(=O)NC1CC2(CCC2)Oc2c(Cl)cc(Cl)cc21` (stereo not shown) [Example 62, N-(6,8-Dichloro-3,4-dihydrospiro[chromene-2,1′-cyclobutan]-4-yl)-3-{2-isopropoxy-5-[(methylsulfonyl)amino]phenyl}propanamide], the inhibition at 1 µM is 13.5% and the inhibition at 10 µM was 82.2%.

Regarding `CCCCOc1c(CCC(=O)NC2CC3(CCC3)Oc3c(Cl)cc(Cl)cc32)cccc1NS(C)(=O)=O` (stereo not shown) [Example 63, N-(6,8-Dichloro-3,4-dihydrospiro[chromene-2,1′-cyclobutan]-4-yl)-3-{2-butoxy-3-[(methylsulfonyl)amino]phenyl}propanamide], the inhibition at 1 µM is 73.3% and the inhibition at 10 µM worked out at 97%.

As for `CS(=O)(=O)Nc1cccc(CCC(=O)NC2CC3(CCC3)Oc3c(Cl)cc(Cl)cc32)c1OCC1CC1` (stereo not shown) [Example 64, N-(6,8-Dichloro-3,4-dihydrospiro[chromene-2,1′-cyclobutan]-4-yl)-3-{2-(cyclopropylmethoxy)-3-[(methylsulfonyl)amino]phenyl}propanamide], the inhibition at 1 µM is 37.6% and the inhibition at 10 µM stood at 95.4%.

For the compound `CC(C)Oc1c(CCC(=O)NC2CC3(CCC3)Oc3c(Cl)cc(Cl)cc32)cccc1NS(C)(=O)=O` (stereo not shown) [Example 65, N-(6,8-Dichloro-3,4-dihydrospiro[chromene-2,1′-cyclobutan]-4-yl)-3-{2-isopropoxy-3-[(methylsulfonyl)amino]phenyl}propanamide], the inhibition at 1 µM came to 74.1%, the inhibition at 10 µM turned out to be 99.5% and the IC50 lay in the range of 0.5 to 1 µM.

Regarding `O=C(CCc1cccc2ccccc12)NC1CC2(CCC2)Oc2ccc(Cl)cc21` (stereo not shown) [Example 66, N-(6-Chloro-3,4-dihydrospiro[chromene-2,1′-cyclobutan]-4-yl)-3-(1-naphthyl)propanamide], the inhibition at 1 µM was determined as 44.6% and the inhibition at 10 µM is 92.3%.

With `COc1ccc2ccccc2c1CCC(=O)N[C@@H]1CC2(CCC2)Oc2ccc(Cl)cc21` [Example 67], the inhibition at 1 µM came to 17% and the inhibition at 10 µM was 84.7%.

As for `COc1ccc2ccccc2c1CCC(=O)N[C@H]1CC2(CCC2)Oc2ccc(Cl)cc21` [Example 68], the inhibition at 1 µM was 70.6%, the inhibition at 10 µM was determined as 91% and the IC50 was 0.5 to 1 µM.

Turning to `COc1ccc(CCC(=O)N[C@@H]2CC3(CCC3)Oc3ccc(Cl)cc32)c2ccccc12` [Example 69, N-[(4R)-6-Chloro-3,4-dihydrospiro[chromene-2,1′-cyclobutan]-4-yl)-3-(4-methoxy)-1-naphthylpropanamide], the inhibition at 1 µM turned out to be 40.3% and the inhibition at 10 µM turned out to be 86.8%.
